Laboratory results as given in the NIST ThermoML archive (doi:10.1021/acs.jced.5b00537).

Columns and labels:
[1] = Liquid; for viscosity: Cone and plate viscometry; for mass density: Vibrating tube method; for vapor or sublimation pressure: Ebulliometric method (Recirculating still)
[2] = xn = mol fraction of the nth substance listed; conditions: 100 kPa, Liquid, x2 = 0; for viscosity: Cone and plate viscometry; for mass density: Vibrating tube method

CC(C)CO [2-methyl-1-propanol]
[1]
Conditions | mass density, 101 kPa [kg/m3] | mass density, 101.33 kPa [kg/m3] | viscosity, 101 kPa [mPa·s]
293.15 K | 801.75 | – | 4.315
298.15 K | – | 797.83 | –
303.15 K | 794.16 | – | 3.089
313.15 K | 786.27 | – | 2.261
323.15 K | 778.28 | – | 1.701
333.15 K | 769.74 | – | 1.29
343.15 K | 760.83 | – | –
353.15 K | 751.67 | – | –
363.15 K | 741.9 | – | –

[1]
Conditions | vapor or sublimation pressure [kPa]
296.87 K | 1.391
298.77 K | 1.593
300.53 K | 1.796
302.12 K | 1.995
302.29 K | 2
302.3 K | 2
309.88 K | 3.289
311.74 K | 3.692
313.42 K | 4.095
314.93 K | 4.489
316.71 K | 4.991
316.78 K | 4.995
322.51 K | 6.986
323.97 K | 7.587
325.33 K | 8.182
326.61 K | 8.784
327.82 K | 9.384
329.01 K | 9.99
329.02 K | 9.989
336.03 K | 14.47
337.45 K | 15.56
338.83 K | 16.66
340.11 K | 17.76
342.37 K | 19.95
342.51 K | 19.99
342.52 K | 19.99
357.51 K | 39.95
357.52 K | 39.94
362.71 K | 49.87
367.13 K | 59.85
370.94 K | 69.83
374.36 K | 79.82
377.44 K | 89.76
378.97 K | 94.99

CCC(C)(C)O [2-methylbutan-2-ol]
[1]
Conditions | mass density, 101 kPa [kg/m3] | mass density, 101.33 kPa [kg/m3] | viscosity, 101 kPa [mPa·s]
293.15 K | 808.77 | – | 4.596
298.15 K | – | 804.28 | –
303.15 K | 799.74 | – | 2.983
313.15 K | 790.35 | – | 2.078
323.15 K | 780.66 | – | 1.494
333.15 K | 770.4 | – | 1.093
343.15 K | 759.8 | – | –
353.15 K | 749.13 | – | –
363.15 K | 738.77 | – | –

[1]
Conditions | vapor or sublimation pressure [kPa]
296.61 K | 1.992
296.7 K | 1.99
297.94 K | 2.19
299.29 K | 2.388
300.33 K | 2.589
301.46 K | 2.791
302.54 K | 2.999
310.7 K | 4.984
311.35 K | 5.181
311.98 K | 5.383
312.29 K | 5.49
313.76 K | 5.991
315.13 K | 6.487
316.4 K | 6.987
317.37 K | 7.387
322.63 K | 9.978
322.92 K | 10
323.15 K | 10.18
323.49 K | 10.38
323.84 K | 10.58
324.14 K | 10.78
324.51 K | 10.97
325.37 K | 11.57
326.73 K | 12.38
327.62 K | 12.97
327.81 K | 13.17
329.05 K | 13.97
330.38 K | 14.96
336.11 K | 19.94
336.26 K | 19.99
337.58 K | 21.45
338.97 K | 22.94
340.32 K | 24.44
341.57 K | 25.93
341.59 K | 25.92
342.39 K | 26.94
348.11 K | 34.91
351.17 K | 39.89
351.33 K | 39.95
353.93 K | 44.88
356.46 K | 49.88
361.02 K | 59.92
372.63 K | 93.14
373.16 K | 94.89
373.29 K | 95.01
373.6 K | 96.54
374.05 K | 98.01
374.53 K | 99.81
374.93 K | 101.04
376.03 K | 104.99
377.33 K | 109.95
378.63 K | 115.02
379.87 K | 120.01
381.05 K | 124.96

CC(C)CO [2-methyl-1-propanol] + CCC(C)(C)O
[2]
Conditions | mass density [kg/m3] | viscosity [mPa·s]
293.15 K | 801.75 | 4.315
303.15 K | 794.16 | 3.089
313.15 K | 786.27 | 2.261
323.15 K | 778.28 | 1.701
333.15 K | 769.74 | 1.29
343.15 K | 760.83 | –
353.15 K | 751.67 | –
363.15 K | 741.9 | –
